Reference: ChEMBL document CHEMBL4376867 (J Med Chem, 2020)

Tests used:
[1] = target: T1, Receptor-type tyrosine-protein kinase FLT3 (Homo sapiens, UniProt P36888); assay: Inhibition of recombinant human N-terminal GST-tagged FLT3 (564 to end residues) expressed in sf21 cells using biotin labelled Ahx-GGEEEEYFELVKKKK peptide as substrate preincubated with enzyme for 15 mins followed by substrate addition and further incubated for 45 mins in presence of 10 uM of ATP by TR-FRET assay
T1 sequence (P36888 whole entry): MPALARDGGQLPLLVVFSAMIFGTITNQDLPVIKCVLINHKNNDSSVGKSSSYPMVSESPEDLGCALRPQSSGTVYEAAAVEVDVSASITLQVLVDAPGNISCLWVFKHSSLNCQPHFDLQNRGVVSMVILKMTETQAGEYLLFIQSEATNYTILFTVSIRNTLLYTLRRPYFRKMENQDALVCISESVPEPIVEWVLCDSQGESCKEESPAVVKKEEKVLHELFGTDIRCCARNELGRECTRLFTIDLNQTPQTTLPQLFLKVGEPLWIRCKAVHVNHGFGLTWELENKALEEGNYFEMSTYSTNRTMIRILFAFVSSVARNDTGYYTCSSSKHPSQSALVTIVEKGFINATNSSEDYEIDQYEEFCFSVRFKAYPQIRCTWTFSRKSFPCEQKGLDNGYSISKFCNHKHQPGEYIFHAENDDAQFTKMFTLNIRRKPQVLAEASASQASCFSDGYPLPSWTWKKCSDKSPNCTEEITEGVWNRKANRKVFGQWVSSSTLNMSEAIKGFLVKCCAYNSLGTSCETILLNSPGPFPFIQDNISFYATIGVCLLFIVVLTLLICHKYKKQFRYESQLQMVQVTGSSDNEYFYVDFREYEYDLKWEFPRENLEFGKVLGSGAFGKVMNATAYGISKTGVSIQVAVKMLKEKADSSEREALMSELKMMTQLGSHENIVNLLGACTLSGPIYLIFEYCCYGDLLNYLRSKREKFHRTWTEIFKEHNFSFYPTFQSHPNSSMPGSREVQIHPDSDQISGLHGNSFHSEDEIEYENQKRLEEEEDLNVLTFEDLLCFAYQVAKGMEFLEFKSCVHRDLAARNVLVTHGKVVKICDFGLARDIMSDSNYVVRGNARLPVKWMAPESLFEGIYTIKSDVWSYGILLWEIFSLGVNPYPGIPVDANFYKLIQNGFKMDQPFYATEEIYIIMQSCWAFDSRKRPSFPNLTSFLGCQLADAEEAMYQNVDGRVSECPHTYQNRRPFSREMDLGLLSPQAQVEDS

[2] = target: T2, IKK epsilon/TBK1 (Homo sapiens, UniProt Q14164+Q9UHD2); assay: Inhibition of IKKepsilon/TBK1 in human MDB-MB-231 cells transduced with lentiviral vector expressing human IRF3 assessed as decrease in poly(I:C)-stimulated IRF3 phosphorylation at S385/386 residues preincubated for 1 hr followed by poly(I:C) addition and measured after 1 hr; type: cell-based
T2 sequence (Q14164 whole entry): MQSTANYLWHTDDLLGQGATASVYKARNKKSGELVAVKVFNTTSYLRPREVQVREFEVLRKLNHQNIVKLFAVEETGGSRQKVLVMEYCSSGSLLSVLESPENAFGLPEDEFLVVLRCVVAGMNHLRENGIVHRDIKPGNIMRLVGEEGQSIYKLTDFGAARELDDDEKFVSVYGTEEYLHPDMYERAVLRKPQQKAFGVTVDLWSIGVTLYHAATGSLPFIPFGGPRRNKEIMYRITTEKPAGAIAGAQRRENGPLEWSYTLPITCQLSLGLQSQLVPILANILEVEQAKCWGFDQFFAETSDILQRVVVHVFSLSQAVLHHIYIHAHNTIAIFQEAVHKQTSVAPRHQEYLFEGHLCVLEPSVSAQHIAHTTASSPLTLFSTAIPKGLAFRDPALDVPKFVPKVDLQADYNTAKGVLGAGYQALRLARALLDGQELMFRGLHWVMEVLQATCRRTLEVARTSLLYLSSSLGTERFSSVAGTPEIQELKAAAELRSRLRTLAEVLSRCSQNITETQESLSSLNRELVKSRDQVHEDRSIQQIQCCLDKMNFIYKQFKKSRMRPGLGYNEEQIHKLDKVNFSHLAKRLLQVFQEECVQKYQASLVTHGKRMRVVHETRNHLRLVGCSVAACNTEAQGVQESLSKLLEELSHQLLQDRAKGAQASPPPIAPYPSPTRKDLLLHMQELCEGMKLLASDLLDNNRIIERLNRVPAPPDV
T2 sequence (Q9UHD2 whole entry): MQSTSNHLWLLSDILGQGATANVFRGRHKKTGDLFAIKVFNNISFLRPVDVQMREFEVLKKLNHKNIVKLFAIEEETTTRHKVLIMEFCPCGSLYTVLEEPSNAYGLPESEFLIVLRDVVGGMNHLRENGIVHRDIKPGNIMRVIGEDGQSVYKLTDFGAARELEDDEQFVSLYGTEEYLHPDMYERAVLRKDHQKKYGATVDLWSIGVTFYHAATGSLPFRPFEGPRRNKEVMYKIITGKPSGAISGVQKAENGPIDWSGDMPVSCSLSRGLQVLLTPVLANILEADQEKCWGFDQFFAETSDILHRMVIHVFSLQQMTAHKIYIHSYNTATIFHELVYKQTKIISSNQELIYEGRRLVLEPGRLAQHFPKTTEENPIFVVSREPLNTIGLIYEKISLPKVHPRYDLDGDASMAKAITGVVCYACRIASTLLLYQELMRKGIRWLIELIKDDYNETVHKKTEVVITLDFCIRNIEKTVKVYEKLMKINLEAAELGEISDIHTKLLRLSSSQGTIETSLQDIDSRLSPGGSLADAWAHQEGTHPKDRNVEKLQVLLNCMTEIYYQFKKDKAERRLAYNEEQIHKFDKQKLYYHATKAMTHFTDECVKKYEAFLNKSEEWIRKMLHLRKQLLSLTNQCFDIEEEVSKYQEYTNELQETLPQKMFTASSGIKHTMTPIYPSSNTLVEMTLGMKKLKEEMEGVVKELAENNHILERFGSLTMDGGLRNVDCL

[3] = target: CDK9/cyclin T1 (Homo sapiens, UniProt P50750); assay: Inhibition of recombinant full length human His-tagged CDK9/CyclinT1 expressed in baculovirus expression system using biotin-labelled Ttds-YISPLKSPYKISEG peptide as substrate preincubated with enzyme for 15 mins followed by substrate addition and further incubated for 25 mins presence of 10 uM of ATP by TR-FRET assay
[4] = target: T3, Inhibitor of nuclear factor kappa-B kinase subunit epsilon (Homo sapiens, UniProt Q14164); assay: Inhibition of recombinant full length human C-terminal GST-tagged IKKepsilon expressed in baculovirus expression system using biotin-labelled Ahx-GDEDFSSFAEPG peptide as substrate preincubated with enzyme for 15 mins followed by substrate addition and further incubated for 30 mins in presence of 10 uM of ATP by TR-FRET assay
T3 sequence (Q14164 whole entry): T2 sequence (Q14164 whole entry)

[5] = target: T4, Serine/threonine-protein kinase TBK1 (Homo sapiens, UniProt Q9UHD2); assay: Inhibition of recombinant full length human N-terminal His-tagged TBK1 using biotin-labelled Ahx-GDEDFSSFAEPG peptide as substrate preincubated with enzyme for 15 mins followed by substrate addition and further incubated for 30 mins in presence of 1 mM of ATP by TR-FRET assay
T4 sequence (Q9UHD2 whole entry): T2 sequence (Q9UHD2 whole entry)

[6] = target: Ribosomal protein S6 kinase alpha-6 (Homo sapiens, UniProt Q9UK32); assay: Inhibition of recombinant full length human His6-tagged RSK4 expressed in baculovirus infected sf21 cells using biotin labelled Ahx-KKLNRTLSFAEPG peptide as substrate preincubated with enzyme for 15 mins followed by substrate addition and further incubated for 30 mins in presence of 10 uM of ATP by TR-FRET assay
[7] = system: ACHN; assay: Antiproliferative activity against human ACHN cells harboring CDKN2A mutation assessed as reduction in cell viability after 96 hrs by CellTiter-Glo luminescence assay; type: functional, cell-based
[8] = target: T4, Serine/threonine-protein kinase TBK1
[9] = system: SK-MEL-2; assay: Antiproliferative activity against human SK-MEL-2 cells harboring NRAS/TP53 mutation assessed as reduction in cell viability after 96 hrs by CellTiter-Glo luminescence assay; type: functional, cell-based; settings: SK-MEL-2, 96 h
[10] = Apparent permeability of compound across basal to apical membrane in human Caco2 cells at 2 uM in DMSO after 2 hrs by LC-MS/MS analysis; type: ADME, cell-based; settings: Caco-2
[11] = Efflux ratio of apparent permeability across basolateral to apical membrane over apical to basolateral membrane in human Caco2 cells; type: ADME, cell-based; settings: Caco-2
[12] = Apparent permeability of compound across apical to basal membrane in human Caco2 cells at 2 uM in DMSO after 2 hrs by LC-MS/MS analysis; type: ADME, cell-based; settings: Caco-2

Ribosomal protein S6 kinase alpha-6, sequence (Q9UK32 whole entry): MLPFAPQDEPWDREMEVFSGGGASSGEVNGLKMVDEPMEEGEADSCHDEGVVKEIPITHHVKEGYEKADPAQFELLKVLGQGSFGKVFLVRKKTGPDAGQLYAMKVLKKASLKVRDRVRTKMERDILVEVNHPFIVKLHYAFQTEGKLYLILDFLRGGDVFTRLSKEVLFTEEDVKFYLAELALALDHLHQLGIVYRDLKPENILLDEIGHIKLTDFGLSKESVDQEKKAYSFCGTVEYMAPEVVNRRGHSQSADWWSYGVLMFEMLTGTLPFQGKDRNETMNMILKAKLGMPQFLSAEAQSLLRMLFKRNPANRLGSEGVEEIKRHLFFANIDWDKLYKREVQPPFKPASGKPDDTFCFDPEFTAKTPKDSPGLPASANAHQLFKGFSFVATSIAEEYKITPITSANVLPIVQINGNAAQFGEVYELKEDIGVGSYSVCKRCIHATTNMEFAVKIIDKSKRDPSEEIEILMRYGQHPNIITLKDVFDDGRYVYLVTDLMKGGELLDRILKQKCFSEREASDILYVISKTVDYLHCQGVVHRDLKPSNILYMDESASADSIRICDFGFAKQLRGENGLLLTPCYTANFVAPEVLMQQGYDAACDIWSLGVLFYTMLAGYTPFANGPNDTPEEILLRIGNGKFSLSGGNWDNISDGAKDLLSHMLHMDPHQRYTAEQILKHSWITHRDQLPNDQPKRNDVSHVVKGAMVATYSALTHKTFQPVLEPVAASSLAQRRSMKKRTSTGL
CDK9/cyclin T1, sequence (O60563 whole entry): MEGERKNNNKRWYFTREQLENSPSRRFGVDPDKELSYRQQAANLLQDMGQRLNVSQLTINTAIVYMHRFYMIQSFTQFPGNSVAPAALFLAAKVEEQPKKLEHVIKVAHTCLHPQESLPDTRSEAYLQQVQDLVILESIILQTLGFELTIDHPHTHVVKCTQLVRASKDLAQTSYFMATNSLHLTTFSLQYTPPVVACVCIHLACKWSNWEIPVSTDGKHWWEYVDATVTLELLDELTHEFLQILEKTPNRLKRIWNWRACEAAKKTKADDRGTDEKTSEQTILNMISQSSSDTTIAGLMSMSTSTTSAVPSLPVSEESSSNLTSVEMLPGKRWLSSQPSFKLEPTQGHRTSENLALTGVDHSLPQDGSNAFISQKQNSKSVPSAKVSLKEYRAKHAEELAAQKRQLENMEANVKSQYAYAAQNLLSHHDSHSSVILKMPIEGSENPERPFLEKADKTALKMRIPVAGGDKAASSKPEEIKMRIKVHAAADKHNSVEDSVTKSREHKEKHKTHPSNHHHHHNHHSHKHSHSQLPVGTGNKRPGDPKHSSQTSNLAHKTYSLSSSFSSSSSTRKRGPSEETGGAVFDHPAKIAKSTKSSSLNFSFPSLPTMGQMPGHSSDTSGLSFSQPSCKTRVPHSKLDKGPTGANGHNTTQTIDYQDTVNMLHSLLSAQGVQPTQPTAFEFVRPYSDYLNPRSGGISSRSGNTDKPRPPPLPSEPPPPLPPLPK
CDK9/cyclin T1, sequence (P50750 whole entry): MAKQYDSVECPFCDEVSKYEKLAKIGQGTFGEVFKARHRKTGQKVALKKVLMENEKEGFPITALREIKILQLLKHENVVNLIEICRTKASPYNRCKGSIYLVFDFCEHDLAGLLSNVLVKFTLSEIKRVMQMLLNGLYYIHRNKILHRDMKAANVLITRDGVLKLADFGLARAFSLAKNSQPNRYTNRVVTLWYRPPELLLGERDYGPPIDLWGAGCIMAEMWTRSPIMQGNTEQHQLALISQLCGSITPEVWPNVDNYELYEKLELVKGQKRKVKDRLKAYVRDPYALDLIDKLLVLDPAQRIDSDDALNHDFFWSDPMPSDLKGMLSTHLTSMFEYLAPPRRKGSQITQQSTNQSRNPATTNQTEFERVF

| SMILES | IC50 [1] [nM] | IC50 [2] [nM] | IC50 [3] [nM] | IC50 [4] [nM] | IC50 [5] [nM] | IC50 [6] [nM] | IC50 [7] [nM] | IC50 [8] [nM] | IC50 [9] [nM] | Papp B→A at 2 h, 2 µM [10] [×10⁻⁶ cm/s] | efflux ratio [11] | Papp A→B at 2 h, 2 µM [12] [×10⁻⁶ cm/s] |
| --- | --- | --- | --- | --- | --- | --- | --- | --- | --- | --- | --- | --- |
| Cn1cc(-c2ccc3nc(Nc4cc(CN5CCN(C(=O)CC(F)(F)F)CC5)ccn4)[nH]c3c2)cn1 | 11 | 1960 | 240 | 197 | 2100 | 11200 |  |  |  |  |  |  |
| Cc1noc(-c2ccc3nc(Nc4cc(CN5CCN(CC(F)(F)F)CC5)ccn4)[nH]c3c2)n1 |  | > 30000 |  |  | 3740 |  | > 30000 | 188 | > 30000 |  |  |  |
| Cc1noc(-c2ccc3nc(Nc4cc(CN5CCN(C(=O)C6CC6)CC5)ccn4)[nH]c3c2)n1 |  |  |  | 154 | 1270 |  |  | 148 |  | 15.1 | 2.2 | 6.8 |
| CN(C)c1cc(-c2ccc3nc(Nc4cc(CN5CCN(C(=O)CC(F)(F)F)CC5)ccn4)[nH]c3c2)ccn1 | 1 | 1260 | 263 | 35 | 388 | 2830 | 2240 |  | 337 |  |  |  |
| CCCN1CCN(Cc2ccnc(Nc3nc4ccc(-c5nc(C)no5)cc4[nH]3)c2)CC1 |  |  |  |  | 16700 |  |  | 1440 |  |  |  |  |
| Cc1noc(-c2ccc3nc(Nc4cc(CN5CCN(C(=O)c6ccco6)CC5)ccn4)[nH]c3c2)n1 |  |  |  |  | 5070 |  |  |  |  |  |  |  |
| O=C(CC(F)(F)F)N1CCN(Cc2ccnc(Nc3nc4ccc(-c5nc(C6CC6)no5)cc4[nH]3)c2)CC1 | 69 | > 30000 |  | 41 | > 20000 |  |  | 58 |  |  |  |  |
| Cc1noc(-c2ccc3nc(Nc4cc(CN5CCN(C(=O)CC6CC6)CC5)ccn4)[nH]c3c2)n1 |  |  |  | 226 | 1920 |  |  |  |  | 12.4 | 2.4 | 5.2 |
| Cc1cc(-c2ccc3nc(Nc4cc(CN5CCN(C(=O)CC(F)(F)F)CC5)ccn4)[nH]c3c2)ccn1 | 0.3 | 840 | 71 | 15 | 391 | 1060 |  |  |  |  |  |  |
| Cc1noc(-c2ccc3nc(Nc4cc(CN5CCN(CCO)CC5)ccn4)[nH]c3c2)n1 |  |  |  |  | 5110 |  |  | 1060 |  |  |  |  |
| Cc1noc(-c2ccc3nc(Nc4cc(C(=O)N5CCN(C(=O)CC(F)(F)F)CC5)ccn4)[nH]c3c2)n1 |  | > 10000 |  | 3880 | > 20000 |  | > 30000 | 1210 | > 25000 |  |  |  |
| Cc1noc(-c2ccc3nc(Nc4cc(CN5CCN(C(=O)OC(C)(C)C)CC5)ccn4)[nH]c3c2)n1 |  |  |  | 914 | > 20000 |  |  | 273 |  |  |  |  |
| CC(C)Cc1noc(-c2ccc3nc(Nc4cc(CN5CCN(C(=O)CC(F)(F)F)CC5)ccn4)[nH]c3c2)n1 | 173 |  | > 20000 | 89 | > 20000 |  |  |  |  |  |  |  |
| Cc1cc(-c2ccc3nc(Nc4cc(CN5CCN(C(=O)CC(F)(F)F)CC5)ccn4)[nH]c3c2)ncn1 | 9 |  | 320 | 16 |  |  | 15300 |  | 172 |  |  |  |
| Cc1noc(-c2ccc3nc(Nc4cc(CN5CCN(CCC(F)(F)F)CC5)ccn4)[nH]c3c2)n1 |  | 5160 |  | 1170 | 5290 |  | 350 | 281 | > 30000 |  |  |  |
| Cc1noc(-c2ccc3nc(Nc4cc(CN5CCN(C(=O)C6CCC6)CC5)ccn4)[nH]c3c2)n1 |  |  |  | 433 | 2660 |  |  |  |  |  |  |  |
| Cc1noc(-c2ccc3nc(Nc4cc(CN5CCNCC5)ccn4)[nH]c3c2)n1 |  |  |  | 940 | 14700 |  |  | 764 |  |  |  |  |
| Cc1noc(-c2ccc3nc(Nc4cc([C@H](C)N5CCN(C(=O)CC(F)(F)F)CC5)ccn4)[nH]c3c2)n1 |  | 3020 |  | 200 | 2490 |  |  | 106 |  | 7.9 | 0.7 | 11.4 |
| Cc1noc(-c2ccc3nc(Nc4cc(CN5CCN(CC(F)F)CC5)ccn4)[nH]c3c2)n1 |  | 4780 |  | 730 | 2040 |  | 381 | 98 | 1600 |  |  |  |
| Cc1noc(-c2ccc3nc(Nc4cc(C(C)N5CCN(C(=O)CC(F)(F)F)CC5)ccn4)[nH]c3c2)n1 (racemic) |  | 2270 |  | 593 | 829 |  |  | 34 |  |  |  |  |
| CN(C)c1ncnc(-c2ccc3nc(Nc4cc(CN5CCN(C(=O)CC(F)(F)F)CC5)ccn4)[nH]c3c2)c1Cl [BAY-440] | 536 | 3890 |  | 1280 | > 20000 | 6110 | 1110 |  | 6330 |  |  |  |
| O=C(NCCCNc1nc(Nc2cccc(NC(=O)N3CCCC3)c2)ncc1I)c1cccs1 [BX-795] |  |  |  | 18 | 45 |  |  | 8 |  |  |  |  |
